Experimental data: patent US12180159B2, “Activators of the unfolded protein response” (The Board of Trustees of the University of Illinois, priority 2018, dated 2024)

Columns and labels:
[1] = system: (BHPI-sensitive) parental T47D cells; test: Growth of parental T47D cells (MTS); type: cell-based, human; conditions: 100 nM and 1 μM, 4 days
Description: (§1) ERα containing T47D human breast cancer cells able to survive in 1 μM BHPI were selected by clonal outgrowth. The effect of 100 nM and 1 μM BHPI and (−)-105 on growth of the (BHPI-sensitive) parental T47D cells and partially BHPI-resistant T47D clones 1, 3, 8, and 11 was evaluated. 4,000 cells/well were plated. Cell number was determined by MTS assay from a standard curve of absorbance versus cell number. […] Thus, in 4 days (−)-105 killed some, but not all, of the resistant cells.

[2] = system: ERα Negative MCF-10A cells; test: Trypan Blue exclusion cell death assay, MCF-10A cells; type: cell-based; conditions: 75 nM, 24 hours
Description: (§2) TRYPAN BLUE: For decades, viable cells have been measured by their ability to exclude the dye Trypan Blue. […] Dead cells, which have lost membrane integrity, take up the dye and are blue. Thus, the percentage of dead cells is the percentage of cells that are Trypan Blue positive out of the total cell population. Quantitative assessment of Trypan Blue uptake uses a cell counter from Fisher. Since the assay is instrument based, there is no observer bias in determining the percentage of Trypan Blue positive cells.
(§3) TRYPAN BLUE ASSAYS: Assays are performed on cells in 6 well plates: 300,000 cells are plated in each well of a 6 well plate in 3 ml of medium. After 24 hours, the DMSO vehicle or the indicated compound is added (in 1000th of the vol.) The cells incubated for an additional 24 hours, and then harvested in 0.25 ml of trypsin, followed after harvest by 0.75 ml of medium. The cells are spun down and resuspended in 100-200 μl of medium left that is over the cell pellet (resuspend cells by pipetting up and down a few times). Add 10 μl to 10 μl of trypan blue. Then 10 μl is inserted into the counting slide. After inserting the slide into the Fisher TC20 counting is automatic (these many cells are needed because an accurate ratio of Trypan Blue positive to Trypan Blue negative cells requires about 200 cells in the field the instrument counts).
In FIG. 28, neither the test compounds nor BHPI kill non-tumorigenic ERα Negative MCF-10A breast cells. ERα Negative MCF-10A cells were maintained for 24 hours in DMSO vehicle or 75 nM of BHPI or 75 nM of each of the indicated test compounds: 4, 6 and 105. Cell death was determined using the instrument-based Trypan Blue exclusion assay. (n=3±SEM).

[3] = system: T47D, TYS-4 and TDG-1 cells; test: MTS proliferation assay, T47D, TYS and TDG cells; type: cell-based, human; conditions: 4 days
Description: FIG. 30 compares the ability of BHPI and test compounds to inhibit proliferation of T47D, TYS and TDG cells. T47D cells were in medium containing 10 FBS (which contains estrogen), TYS-4 and TDG-1 cells were in medium containing 10% cd-FBS (estrogen depleted). Cells are plated at 2,000 cells/well in 96 well plates. After 24 hours in medium containing FBS or charcoal-dextran treated FBS (depleted of endogenous estrogens), the indicated concentration of each compound (in DMSO at 1/1000th of the volume of medium) was added. After 2 days the medium was changed, and the compounds were added again. After 2 additional days (4 days total) MTS assays are used to evaluate cell proliferation. (n=6±S.E.M.).

[4] = system: partially BHPI-resistant T47D clones 1, 3, 8, and 11; test: Growth of partially BHPI-resistant T47D clones (MTS); type: cell-based, human; conditions: 100 nM and 1 μM, 4 days
Description: as §1

[5] = system: Caov-3 cells; test: Cell death of Caov-3 ovarian cancer cells (automated Trypan Blue exclusion); type: cell-based, human; conditions: 24 hours
Description: FIG. 33. 105, but not BHPI, kills therapy-resistant ovarian CaOV-3 ovarian cancer cells. (±)-105; Cell death assay: Automated Trypan Blue exclusion. (24 hours post (±)-105) FIG. 34. (−)105 nearly eradicates ER+ drug-resistant tumors. Orthotopic breast cancer model, TYS-Luc cells, 40 mg/kg (−)-105 i.p., daily. 7 d Post injection image is a much longer exposure at higher gain than before injection image.
Caov3: Drug resistant ERα positive ovarian cancer cells. […] These cells are completely resistant to tamoxifen and fulvestrant and partially resistant to cisplatin and paclitaxel.

[6] = system: ERα positive breast cancer; test: Mouse xenograft model of ERα positive breast cancer (BHPI); type: in vivo; conditions: at reasonable doses
[7] = system: OVCAR-3 cells
[8] = system: TYS-Luc cells; test: Long-term cell culture experiment, TYS-Luc cells (MTS); type: cell-based, human; conditions: 2 weeks 1 μM, then 4 weeks without drug
Description: To simulate the effect of several weeks of treatment of a tumor in a mouse xenograft, long-term cell culture experiments were performed. TYS-Luc cells (T47DERαY537S-Luc cells; ERαY537S is the most lethal ERα mutation seen in metastatic breast cancer) were plated at 4,000 cells/well in 96 well plates. […] After 2 weeks (medium change every 2 days) cell number was determined using MTS and a standard curve of absorbance versus cell number for TYS-Luc cells. Notes: (i) Bars denote the BHPI and (−)-105 arms of the experiment. No drug is present during regrow. […] This allows any surviving cells to regrow. After 4 weeks the cells were assayed using MTS. […] (Note: Visual inspection of the wells confirmed that there were no cells in the well treated for 2 weeks with active (−)-105.) To test whether the cells that regrew after BHPI treatment were resistant to BHPI they were re-treated for another cycle (BHPI Retreat) and shown to retain sensitivity to BHPI killing. (n=8 biological replicates±SEM.

[9] = system: ATP levels in TYS-Luc cells; test: Intracellular ATP levels; type: cell-based, human; conditions: 10,000 nM thapsigargin with 1,000 nM (−)-105, 1 hr
Description: TYS-Luc cells were maintained DMSO vehicle (Veh), 1,000 nM BHPI, 1,000 nM (−)-105 with and without 10,000 nM thapsigargin (THG) for the indicated times. ATP levels were determines using a kit and relative ATP levels were from a standard curve. […] (n=3±SEM).

[10] = system: MCF-7 and TYS-Luc cells; test: Cell death with 2-APB or thapsigargin (Trypan Blue exclusion); type: cell-based, human; conditions: thapsigargin, TYS-Luc cells, 1 hour
Description: ERα positive MCF-7 and TYS-Luc were treated with DMSO vehicle (Veh), or BHPI or (−)-105 plus or minus 2-APB for the indicated times. Cells death was determined using the instrument-based Trypan Blue exclusion assay. […] This is consistent with (−)-105 inducing powerful lethal activation of the anticipatory UPR pathway. (n=3±SEM). […] TYS-Luc cells were maintained in DMSO vehicle (Veh) or BHPI, or (−)-105 with or without thapsigargin (THG) for the indicated times. Blocking the decline in ATP levels (FIG. 19) with THG inhibited (−)-105-induced cell death. […] (n=3±SEM).

[11] = system: T47D cells; conditions: 24 hours, up to 1,000 nM
Description: One such change is loss of plasma membrane polarity. This is monitored using Annexin V. Dying cells also take up the dye propidium iodide. Propidium iodide (PI) fluoresces when it is intercalated into DNA. These assays monitor cells at specific stages of cell death.
FLOW CYTOMETRY (FITC) ASSAYS: Cells were seeded in 12-well plates, 75,000 cells/well, and allowed to adhere overnight. The next day, the indicated concentrations of raptinal (positive control), (−)-105, (±)-105, and (+)-105 were added and allowed to incubate at 37° C. for 24 hours (Final Volume: 1 ml, 0.1% DMSO). After incubation, cells were harvested and resuspended in 350 μl of cold Annexin binding buffer (10 mM HEPES, 140 mM NaCl, 2.5 mM CaCl2, pH 7.4) premixed with Annexin V-FITC and PI dyes. Samples were analyzed on a BD Biosciences LSRII flow cytometer, and data analysis was performed using FSC Express Version 5-6. Cell death was assessed relative to a DMSO treated control.
T47D, human breast cancer cells were plated at 75,000 cells/well. […] After 24 hours viable cells were determined by FACS using annexin V-FITC and propidium iodide dyes. […]
75,000 ERα positive T47D, human breast cancer cells, were plated/well. […] After 24 hours viable cells were determined by FACS using annexin V-FITC and propidium iodide dyes. […]

[12] = system: TDG cells (T47DERαD538G); test: Trypan Blue exclusion cell death assay, TDG cells; type: cell-based, human; conditions: 24 hours
Description: as §2, §3
The Trypan Blue cell death assay was used to evaluate the ability of the active enantiomer of C-105 [(−)-105] to kill ERα positive TDG-Luc cells. For all studies, 300,000 TDG-Luc cells/well in 10% FBS were plated in a 6 well plate in triplicate. 24 hours after plating, the indicated concentrations the active enantiomer of (−)-105, or BHPI (top) ICI, or OHT (Lower left) or (+)-105 (lower right) were added. After 24 hours, the cells were harvested, and the % dead cells was determined by automated Trypan Blue exclusion using the Countess II automated hemocytometer. Percentage of viable cells was calculated by doing 100−(Cell Death %). (n=3±SEM).
TDG cells were incubated for 24 hours with 75 nM of BHPI or 75 nM of each of the indicated test compounds: 4, 6 and (±)-105 (enantiomers not separated). Cell death was determined using the instrument-based Trypan Blue exclusion assay. Structures are in the Synthesis section. […] (n=3±SEM).

[13] = system: T47D cells; test: Trypan Blue exclusion cell death assay, T47D cells; type: cell-based, human; conditions: 75 nM, 24 hours
Description: as §2
TRYPAN BLUE ASSAYS: Assays are performed on cells in 6 well plates: 300,000 cells are plated in each well of a 6 well plate in 3 ml of medium. After 24 hours, the DMSO vehicle or the indicated compound is added (in 1000th of the vol.) The cells incubated for an additional 24 hours, and then harvested in 0.25 ml of trypsin, followed after harvest by 0.75 ml of medium. […]
T47D cells were incubated for 24 hours with 75 nM of BHPI or 75 nM of each of the indicated test compounds: 4 and 6. Cell death was determined using the instrument-based Trypan Blue exclusion assay. […]
T47D cells were treated for 24 hours with 100 nM BHPI, or with 100 nM of each of the test compounds: 6, 8, and 105. […] Cell death was determined using the instrument-based Trypan Blue exclusion assay. […]

[14] = system: TYS cells (T47DERαY537S); test: Trypan Blue exclusion cell death assay, TYS cells; type: cell-based, human; conditions: 24 hours
Description: as §2, §3
TYS cells were incubated for 24 hours with 35 nM of BHPI or 35 nM of each of the indicated test compounds: 2, 4, and 105. Cell death was determined using the instrument-based Trypan Blue exclusion assay. (n=3±SEM).
TYS cells were incubated for 24 hours with 50 nM of BHPI or 50 nM of each of the indicated test compounds: 4, 6 and 105. Cell death was determined using the instrument-based Trypan Blue exclusion assay. (n=3±SEM).

Cc1cccc2c1NC(=O)C2(c1ccc(O)cc1)c1ccc(O)cc1 [BHPI, reference compound]
growth / killing of parental T47D cells [1]: blocked growth and killed many of the T47D cells | death of ERα Negative MCF-10A cells [2]: neither BHPI nor any of the test compounds induce significant death | inhibition of proliferation [3]: effectively inhibit proliferation | growth of the BHPI-resistant clones [4]: inhibited growth but could not stop growth of the resistant clones | killing of Caov-3 ovarian cancer cells [5]: blocks growth of Caov-3 cells but does not kill them | effect on tumor growth [6]: stopped tumor growth and induced rapid and substantial tumor regression | effect on tumor growth / tumors ([7]; OVCAR-3 orthotopic xenograft): strongly reduced tumor growth | tolerability in mice ([7]; in both studies): well tolerated | regrowth of cells after treatment [8]: robust regrowth

C/C=C(/C)C(=O)O[C@H]1C(C)=C2[C@H]([C@@H]1OC(=O)CCCCCCC)[C@@](C)(OC(C)=O)C[C@H](OC(=O)CCC)[C@@]1(O)[C@H]2OC(=O)[C@@]1(C)O [THG, thapsigargin, reference compound]
effect on (−)-105-induced decline in ATP levels [9]: completely blocked | effect on (−)-105-induced cell death [10]: strong inhibition

CC/C(=C(\c1ccc(O)cc1)c1ccc(OCCN(C)C)cc1)c1ccccc1 [OHT, z-4-hydroxytamoxifen, reference compound]
cytotoxic or cytostatic phenotype [11]: cytostatic | killing of TDG-Luc cells ([12]; dose response, TDG-Luc cells): do not kill

COc1ccc(C2(c3ccc(O)cc3)C(=O)Nc3c(C(F)(F)F)cccc32)cc1 (stereo not shown) [compound 4, 3-(4-hydroxyphenyl)-3-(4-methoxyphenyl)-7-(trifluoromethyl)indolin-2-one]
death of ERα Negative MCF-10A cells [2]: neither BHPI nor any of the test compounds induce significant death | ability to kill T47D cells (wild type estrogen receptor) [13]: greatly increased ability to kill | effectiveness in killing ERα positive breast cancer cells compared to BHPI [3]: more effective than BHPI | ability to kill TYS cells compared to BHPI ([14]; 35 nM): greatly increased ability to kill | ability to kill TYS cells compared to BHPI ([14]; 50 nM): increased ability to kill | ability to kill TDG cells compared to BHPI ([12]; 75 nM): greatly increased ability to kill
